Results on 17 compounds are retold here after patent US20260062422A1 (Halda Therapeutics OpCo, Inc., priority 2022, published 2026).

What is called GI50 is the concentration that inhibits growth by half.

For experiment [1], the system named is T-Rex 293 cell line SC3 cells having increased expression of androgen receptor protein due to exposure to doxycycline. The experiment in a line: Cellular growth inhibition, T-Rex 293 SC3 cells with doxycycline (androgen receptor induced), CellTiter-Glo. The class given is cell-based. To be noted: T-Rex 293 SC3 cells with 10 ng/mL doxycycline (increased androgen receptor expression). A digest of the protocol: (§1)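 With DMSO (0.5%) vehicle as negative control, compounds treated SC3 cells for 72 h in medium containing charcoal-dextran FBS ± doxycycline. This T-Rex 293 clone expresses transfected wild-type AR on induction. Readout: CellTiter-Glo 2.0; GI50 by nonlinear regression.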

Experiment [2] deals with VCaP cells. The experiment in a line: Cellular growth inhibition assay for VCaP cells, CellTiter-Glo. The class given is cell-based, human. To be noted: 72 hours treatment, CellTiter-Glo 2.0. A digest of the protocol:
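GI50 values come from four-parameter curve fits of luminescence data normalized to a zero baseline. Compound, in medium with 0.5% DMSO, was added one day after plating and left for 72 h before CellTiter-Glo 2.0 addition.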

Experiment [3] has as its system T-Rex 293 cell line SC3 cells lacking increased expression of androgen receptor protein. The experiment in a line: Cellular growth inhibition, T-Rex 293 SC3 cells without doxycycline, CellTiter-Glo. The class given is cell-based. To be noted: T-Rex 293 SC3 cells not exposed to doxycycline, CellTiter-Glo 2.0. A digest of the protocol: as §1
In general terms: In ATP-based viability assays light output follows the ATP content of the culture.

Experiment [4] concerns T47D cells. The experiment in a line: Cellular growth inhibition assay for T47D cells, CellTiter-Glo. Format: cell-based, human. To be noted: 72 hours treatment, CellTiter-Glo 2.0 cell viability. A digest of the protocol:
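Luminescence from CellTiter-Glo 2.0 after 72 h of compound exposure gives the viability signal. Cells grew in insulin-supplemented (0.2 units/mL) DMEM with 10% FBS and were treated one day after seeding at 0.5% DMSO. GI50 values come from four-parameter nonlinear regression.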

With `Cc1sc2c(c1C)C(c1ccc(-c3cc(OC4CCN(c5ncc(C(=O)N[C@H]6C(C)(C)[C@H](Oc7ccc(C#N)c(Cl)c7)C6(C)C)cn5)CC4)ns3)cc1)=N[C@@H](Cc1ncco1)c1nnc(C)n1-2` [Compound I-389], the GI50 in experiment [1] (72 h) was below 500 nM; in experiment [2] (Homo sapiens, VCaP, 72 h), 500 to 1500 nM; in experiment [3] (72 h), above 3000 nM; in experiment [4] (Homo sapiens, T47D, 72 h) it was below 500 nM.
Turning to `Cc1noc2c1-c1ccccc1C(c1ccc(OC3CC4(C3)CN(c3ncc(C(=O)N[C@H]5C(C)(C)[C@H](Oc6ccc(C#N)c(Cl)c6)C5(C)C)cn3)CCO4)cc1)=N[C@H]2Cc1ncco1` [Compound I-221, N-[3-(3-chloro-4-cyano-phenoxy)-2,2,4,4-tetramethyl-cyclobutyl]-2-[2-[4-[(4S)-1-methyl-4-(oxazol-2-ylmethyl)-4H-isoxazolo[5,4-d][2]benzazepin-6-yl]phenoxy]-5-oxa-8-azaspiro[3.5]nonan-8-yl]pyrimidine-5-carboxamide], the 50% growth inhibitory concentration (GI50) in experiment [1] (72 h) is below 500 nM; in experiment [2] (Homo sapiens, VCaP, 72 h) it was above 3000 nM; in experiment [3] (72 h), above 3000 nM; in experiment [4] (Homo sapiens, T47D, 72 h), above 3000 nM.
On to `Cc1sc2c(c1C)C(c1ccc(CC[C@H]3CC[C@@]4(CCCN(c5ncc(C(=O)N[C@H]6C(C)(C)[C@H](Oc7ccc(C#N)c(Cl)c7)C6(C)C)cn5)C4)C3)cc1)=N[C@@H](Cc1ncco1)c1nnc(C)n1-2` [Compound I-248], for which the GI50 in experiment [1] (72 h) is above 3000 nM; in experiment [2] (Homo sapiens, VCaP, 72 h), above 3000 nM; in experiment [3] (72 h), above 3000 nM; in experiment [4] (Homo sapiens, T47D, 72 h), above 3000 nM.
On to `Cc1sc2c(c1C)C(c1ccc(O[C@@H]3CCC4(C3)CN(c3ncc(C(=O)N[C@H]5C(C)(C)[C@H](Oc6ccc(C#N)c(Cl)c6)C5(C)C)cn3)C4)cc1)=N[C@@H](Cc1ncco1)c1nnc(C)n1-2` [Compound I-191], for which the 50% growth inhibitory concentration (GI50) was below 500 nM in experiment [1] (72 h); below 500 nM in experiment [2] (Homo sapiens, VCaP, 72 h); below 500 nM in experiment [3] (72 h); below 500 nM in experiment [4] (Homo sapiens, T47D, 72 h).
As to `Cc1sc2c(c1C)C(c1ccc(N3CCC(CC4CCN(c5ncc(C(=O)N[C@H]6C(C)(C)[C@H](Oc7ccc(C#N)c(Cl)c7)C6(C)C)cn5)CC4)CC3)cc1)=N[C@@H](Cc1ncco1)c1nnc(C)n1-2` [Compound I-210], the GI50 is 500 to 1500 nM in experiment [1] (72 h); above 3000 nM in experiment [2] (Homo sapiens, VCaP, 72 h); above 3000 nM in experiment [3] (72 h); above 3000 nM in experiment [4] (Homo sapiens, T47D, 72 h).
Consider `Cc1sc2c(c1C)C(c1ccc([C@H]3C[C@H]([C@H]4CCCN(c5ncc(C(=O)N[C@H]6C(C)(C)[C@H](Oc7ccc(C#N)c(Cl)c7)C6(C)C)cn5)C4)C3)cc1)=N[C@@H](Cc1ncco1)c1nnc(C)n1-2` [Compound I-420], for which the GI50 in experiment [1] (72 h) was above 3000 nM; in experiment [2] (Homo sapiens, VCaP, 72 h), above 3000 nM; in experiment [3] (72 h), above 3000 nM; in experiment [4] (Homo sapiens, T47D, 72 h), above 3000 nM.
As for `Cc1sc2c(c1C)C(c1ccc(C3CC(N4CCN(c5ncc(C(=O)N[C@H]6C(C)(C)[C@H](Oc7ccc(C#N)c(Cl)c7)C6(C)C)cn5)CC4)C3)cc1)=N[C@@H](C)c1nnc(C)n1-2` (some centres unmarked) [Compound I-571], the GI50 was below 500 nM in experiment [1] (72 h); below 500 nM in experiment [2] (Homo sapiens, VCaP, 72 h); 500 to 1500 nM in experiment [3] (72 h); below 500 nM in experiment [4] (Homo sapiens, T47D, 72 h).
Consider `Cc1sc2c(c1C)C(c1ccc(O[C@@H]3CCCN(c4ncc(C(=O)N[C@H]5C(C)(C)[C@H](Oc6ccc(C#N)c(Cl)c6)C5(C)C)cn4)C3)cc1)=N[C@@H](Cc1ncco1)c1nnc(C)n1-2` [Compound I-260], for which the 50% growth inhibitory concentration (GI50) in experiment [1] (72 h) was below 500 nM; in experiment [2] (Homo sapiens, VCaP, 72 h), below 500 nM; in experiment [3] (72 h), 1500 to 3000 nM; in experiment [4] (Homo sapiens, T47D, 72 h) it was below 500 nM.
With `Cc1sc2c(c1C)C(c1ccc(C(=O)N3CCC[C@@H](C(=O)c4ncc(C(=O)N[C@H]5C(C)(C)[C@H](Oc6ccc(C#N)c(Cl)c6)C5(C)C)cn4)C3)cc1)=N[C@@H](Cc1ncco1)c1nnc(C)n1-2` [Compound I-344], the GI50 was above 3000 nM in experiment [1] (72 h); 500 to 1500 nM in experiment [2] (Homo sapiens, VCaP, 72 h); above 3000 nM in experiment [3] (72 h); 500 to 1500 nM in experiment [4] (Homo sapiens, T47D, 72 h).
`Cc1sc2c(c1C)C(c1ccc(CN3CC4(CCCN(c5ncc(C(=O)N[C@H]6C(C)(C)[C@H](Oc7ccc(C#N)c(Cl)c7)C6(C)C)cn5)C4)C3)cc1)=NC(Cc1ncco1)c1nnc(C)n1-2` (some centres unmarked) [Compound I-138]: the GI50 in experiment [1] (72 h) was below 500 nM; in experiment [2] (Homo sapiens, VCaP, 72 h) it was below 500 nM; in experiment [3] (72 h) it was 1500 to 3000 nM; in experiment [4] (Homo sapiens, T47D, 72 h) it was 500 to 1500 nM.
Regarding `Cc1sc2c(c1C)C(c1ccc(C#CCC3CCN(c4ncc(C(=O)N[C@H]5C(C)(C)[C@H](Oc6ccc(C#N)c(Cl)c6)C5(C)C)cn4)CC3)cc1)=N[C@@H](Cc1ncco1)c1nnc(C)n1-2` [Compound I-57], the concentration for 50% growth inhibition (GI50) in experiment [1] (72 h) was below 500 nM; in experiment [2] (Homo sapiens, VCaP, 72 h) it was below 500 nM; in experiment [3] (72 h), below 500 nM; in experiment [4] (Homo sapiens, T47D, 72 h), below 500 nM.
For the compound `Cc1sc2c(c1C)C(c1ccc(C3CC3C3CC4(CCN(c5ncc(C(=O)N[C@H]6C(C)(C)[C@H](Oc7ccc(C#N)c(Cl)c7)C6(C)C)cn5)CC4)C3)cc1)=N[C@H](Cc1ncco1)c1nnc(C)n1-2` (some centres unmarked) [Compound I-150], the GI50 in experiment [1] (72 h) is below 500 nM; in experiment [2] (Homo sapiens, VCaP, 72 h), below 500 nM; in experiment [3] (72 h) it was above 3000 nM; in experiment [4] (Homo sapiens, T47D, 72 h) it was above 3000 nM.
As to `CC[C@@H]1N=C(c2ccc(CC3CCC4(C3)CN(c3ncc(C(=O)N[C@H]5C(C)(C)[C@H](Oc6ccc(C#N)c(Cl)c6)C5(C)C)cn3)CCO4)cc2)c2c(sc(C)c2C)-n2c(C)nnc21` (some centres unmarked) [Compound I-612], the GI50 is below 500 nM in experiment [1] (72 h); 500 to 1500 nM in experiment [2] (Homo sapiens, VCaP, 72 h); 500 to 1500 nM in experiment [3] (72 hours); 1500 to 3000 nM in experiment [4].
Regarding `Cc1sc2c(c1C)C(c1ccc(OC3CC4(CCN(c5ncc(C(=O)N[C@H]6C(C)(C)[C@H](Oc7ccc(C#N)c(Cl)c7)C6(C)C)cn5)CC4)C3)cc1)=N/C(=C/c1ncco1)c1nnc(C)n1-2` [Compound I-230, N-[3-(3-chloro-4-cyano-phenoxy)-2,2,4,4-tetramethyl-cyclobutyl]-2-[2-[4-[(9E)-4,5,13-trimethyl-9-(oxazol-2-ylmethylene)-3-thia-1,8,11,12-tetrazatricyclo[8.3.0.02,6]trideca-2(6),4,7,10,12-pentaen-7-yl]phenoxy]-7-azaspiro[3.5]nonan-7-yl]pyrimidine-5-carboxamide], the GI50 was below 500 nM in experiment [1] (72 h); below 500 nM in experiment [2] (Homo sapiens, VCaP, 72 h); above 3000 nM in experiment [3] (72 h); above 3000 nM in experiment [4] (Homo sapiens, T47D, 72 h).
Regarding `Cc1sc2c(c1C)C(c1ccc(N(C)CC(=O)N3CCC(c4ncc(C(=O)N[C@H]5C(C)(C)[C@H](Oc6ccc(C#N)c(Cl)c6)C5(C)C)cn4)CC3)cc1)=N[C@H](Cc1ncco1)c1nnc(C)n1-2` [Compound I-356], the concentration for 50% growth inhibition (GI50) in experiment [1] (72 h) was below 500 nM; in experiment [2] (Homo sapiens, VCaP, 72 h), below 500 nM; in experiment [3] (72 h), above 3000 nM; in experiment [4] (Homo sapiens, T47D, 72 h), 500 to 1500 nM.
Consider `Cc1sc2c(c1C)C(c1ccc(C3CC3C3CC4(CCN(c5ncc(C(=O)N[C@H]6C(C)(C)[C@H](Oc7ccc(C#N)c(Cl)c7)C6(C)C)cn5)CC4)C3)cc1)=N[C@@H](Cc1ncco1)c1nnc(C)n1-2` (some centres unmarked) [Compound I-238], for which the concentration for 50% growth inhibition (GI50) is below 500 nM in experiment [1] (72 hours), below 500 nM in experiment [2], above 3000 nM in experiment [3] (72 hours) and below 500 nM in experiment [4].
As to `Cc1sc2c(c1C)C(c1ccc(CCC(=O)N3CC4(C3)CN(c3ncc(C(=O)N[C@H]5C(C)(C)[C@H](Oc6ccc(C#N)c(Cl)c6)C5(C)C)cn3)C4)cc1)=N[C@@H](C)c1nnc(C)n1-2` [Compound I-603], the 50% growth inhibitory concentration (GI50) was below 500 nM in experiment [1] (72 h); 500 to 1500 nM in experiment [2] (Homo sapiens, VCaP, 72 h); above 3000 nM in experiment [3] (72 h); 500 to 1500 nM in experiment [4] (Homo sapiens, T47D, 72 h).
